Assay results from ChEMBL document CHEMBL1135032, “Binding of aminoglycoside antibiotics with modified A-site 16S rRNA construct containing non-nucleotide linkers” (Bioorg Med Chem Lett, 2002).

Legend:
Format in all cases: nucleic-acid assay
[1] = molecular target: Nucleic Acid; assay: Tested for binding affinity against RNA construct C
[2] = molecular target: Nucleic Acid; assay: Tested for binding affinity against RNA construct A
[3] = molecular target: Nucleic Acid; assay: Tested for binding affinity against RNA construct E
[4] = molecular target: Nucleic Acid; assay: Tested for binding affinity against RNA construct D
[5] = molecular target: Nucleic Acid; assay: Tested for binding affinity against RNA construct B
[6] = molecular target: Nucleic Acid; assay: Tested for binding affinity against RNA construct C; n.b. means no observable binding
[7] = molecular target: Nucleic Acid; assay: Tested for binding affinity against RNA construct B; n.b. means no observable binding
[8] = molecular target: Nucleic Acid; assay: Tested for binding affinity against RNA construct E; n.b. means no observable binding
[9] = molecular target: Nucleic Acid; assay: Tested for binding affinity against RNA construct A; n.b. means no observable binding
[10] = molecular target: Nucleic Acid; assay: Tested for binding affinity against RNA construct D; n.b. means no observable binding

NC[C@@H]1O[C@H](O[C@H]2[C@@H](O)[C@H](O[C@@H]3[C@@H](O)[C@H](N)C[C@H](N)[C@H]3O[C@H]3O[C@H](CN)[C@@H](O)[C@H](O)[C@H]3N)O[C@@H]2CO)[C@H](N)[C@@H](O)[C@@H]1O [FRAMYCETIN]
Kd [1]: 4340 nM
Kd [2]: 410 nM
Kd [3]: 91 nM
Kd [4]: 470 nM

NC[C@H]1O[C@H](O[C@H]2[C@H](O)[C@@H](O[C@H]3O[C@H](CO)[C@@H](O)[C@H](N)[C@H]3O)[C@H](N)C[C@@H]2N)[C@H](N)[C@@H](O)[C@@H]1O [BEKANAMYCIN]
Kd [5]: 2900 nM
Kd [2]: 2950 nM
Kd [3]: 910 nM
Kd [6]: No binding
Kd [4]: 2750 nM

NC[C@@H]1O[C@H](O[C@H]2[C@@H](O)[C@H](O[C@@H]3[C@@H](O)[C@H](N)C[C@H](N)[C@H]3O[C@H]3O[C@H](CO)[C@@H](O)[C@H](O)[C@H]3N)O[C@@H]2CO)[C@H](N)[C@@H](O)[C@@H]1O [PAROMOMYCIN]
Kd [5]: 1580 nM
Kd [1]: 5330 nM
Kd [2]: 1640 nM
Kd [3]: 400 nM
Kd [4]: 1700 nM

CN[C@@H]1[C@H](O[C@H]2[C@H](O[C@H]3[C@H](O)[C@@H](O)[C@H](N=C(N)N)[C@@H](O)[C@@H]3N=C(N)N)O[C@@H](C)[C@]2(O)C=O)O[C@@H](CO)[C@H](O)[C@H]1O [STREPTOMYCIN]
Kd [7]: No binding
Kd [8]: No binding
Kd [9]: No binding
Kd [6]: No binding
Kd [10]: No binding

NC[C@H]1O[C@H](O[C@H]2[C@H](O)[C@@H](O[C@H]3O[C@H](CO)[C@@H](O)[C@H](N)[C@H]3O)[C@H](N)C[C@@H]2N)[C@H](N)C[C@@H]1O [TOBRAMYCIN]
Kd [5]: 2040 nM
Kd [2]: 2070 nM
Kd [3]: 680 nM
Kd [6]: No binding
